Format in all cases: functional
The subject of assay [1] is P388. Description: Percent growth inhibition of P388 mouse leukemia at 10e-8 M compound concentration in standard MTT assay. A general note: Formazan colour is commonly taken as a measure of viable cells.
Assay [2] relates to A549. Put plainly: Percent growth inhibition of A-549 human lung adenocarcinoma at 10e-6 M compound concentration in standard MTT assay.
The subject of assay [3] is P388. Put plainly: Percent growth inhibition of P388 mouse leukemia at 10e-7 M compound concentration in standard MTT assay.
Assay [4] relates to A549. Put plainly: Percent growth inhibition of A-549 human lung adenocarcinoma at 10e-7 M compound concentration in standard MTT assay.
Assay [5] relates to P388. Put plainly: Percent growth inhibition of P388 mouse leukemia at 10e-6 M compound concentration in standard MTT assay.
Assay [6] deals with A549. Description: Percent growth inhibition of A-549 human lung adenocarcinoma at 10e-8 M compound concentration in standard MTT assay.

Each structure is given as a SMILES string.

`CC(=O)OC[C@@H](C)[C@@]1(O)[C@H](OC2OCC(O)C(OC3OCC(O)C(O)C3OC(C)c3ccccc3)C2OC(C)=O)CC2C3CC=C4C[C@@H](OC(C)=O)CC[C@]4(C)C3CC[C@@]21C` (stereo not given in full) came in with an inhibition at 0.01 µM in the assay with P388 [1] of 17.9%. The inhibition at 1 µM in the assay with A549 [2] was determined as 6.2%; in the assay on P388 [5], 20.4%. Besides, the inhibition at 0.1 µM in the assay on P388 [3] was found to be 15.5%; in the assay with A549 [4] it was 0.8%.
Taken in the same sequence, the figures for `CC(=O)OC1C(O[C@@H]2CC3C4CC=C5C[C@@H](O)CC[C@]5(C)C4CC[C@]3(C)[C@@]2(O)[C@H](C)C(=O)CCC(C)C)OCC(O)C1OC1OCC(O)C(O)C1OC(C)c1ccccc1` (stereo not given in full) were 15.5%, 53.8%, 66.7%, 35.4% and 29.5%.
Turning to `CC(=O)OC1C(O[C@H]2CC[C@@]3(C)C(=CCC4C3CC[C@@]3(C)C4C[C@@H](OC4OCC(O)C(OC5OCC(O)C(O)C5OC(C)c5ccccc5)C4OC(C)=O)[C@]3(O)[C@H](C)C(=O)CCC(C)C)C2)OCC(O)C1OC1OCC(O)C(O)C1OC(C)c1ccccc1` (stereo not given in full), in the assay with A549 [6], the inhibition at 0.01 µM was 0.7%. Besides, the inhibition at 1 µM in the assay with A549 [2] was found to be 80.9%; in the assay on P388 [5], 90.7%. Also, the inhibition at 0.1 µM in the assay with P388 [3] worked out at 52%; with A549 [4], 6.7%.

For orientation: inhibition means the drop in the measured response relative to a control, in per cent. A higher inhibition goes with a strong effect.

The values above are taken from ChEMBL document CHEMBL1133911, “Synthesis of OSW-1 analogues and a dimer and their antitumor activities” (Bioorg Med Chem Lett, 2001).
